According to patent publication US20210275498A1, “IMIDAZOLYL ETHANAMIDE PENTANDIOIC ACID FOR USE IN THERAPY OF SYMPTOMS RELATED TO EXPOSURE TO LETHAL RADIATION” (priority 2018, published 2021):

Key:
Type in all cases: in vivo
[1] = system: C57BL/6 mice; assay: ARS scoring (posture, coat, behavior) after whole-body irradiation; design: key to Supporting variable: ARS scores (trend): positive trend (descriptively) +; negative trend (descriptively) −; no difference (descriptively) 0; conditions: for ARS posture score, most frequent grade (mode): control group 2 mild
Protocol: Scores on a scale of 1 to 4 (minimal, mild, moderate and severe) for posture, coat, and behavior were recorded twice daily per SNBL SOP, beginning on Day −3, except on the day of scheduled necropsy when scoring occurred only once. Observations were performed by 5 individuals during the course of the study.
After Day 0, the first ARS scoring began in the morning and the second ARS scoring began 4 to 6 hours following the completion of the morning ARS scoring. On the day of scheduled necropsy, ARS scoring occurred in the morning, prior to necropsy.
Based on the ARS Scoring SNBL SOP, if the sum of the three parameter scores totaled 8 or higher, the animal was considered moribund and was euthanized with an unscheduled necropsy performed according to the moribund animal SOP.

[2] = system: C57BL/6 mice; assay: Gross pathology and histopathology (testes degeneration, bone marrow cellularity) after whole-body irradiation; design: key to Supporting variable: Bone marrow celluarity (trend) / Supporting variable: Testes degradation (trend): positive trend (descriptively) +; negative trend (descriptively) −; no difference (descriptively) 0
[3] = system: C57BL/6 mice; assay: Peripheral hematology after whole-body irradiation; design: key to Supporting variable: Hematology (trend): positive trend (descriptively) +; negative trend (descriptively) −; no difference (descriptively) 0
Source text: The primary outcome of this study was mortality and secondary outcomes were changes in hematology (peripheral and bone marrow). The endpoints were chosen to follow Animal Rule requirements that state that animal study endpoint be clearly related to the clinical benefit (generally, the enhancement of survival or prevention of major morbidity). The secondary endpoints were chosen to potentially contribute to an understanding of the disease or condition and a characterization of the treatment effect.

[4] = system: C57BL/6 mice; assay: Gross pathology and histopathology (testes degeneration, bone marrow cellularity) after whole-body irradiation; design: key to Supporting variable: Testes degradation (trend): positive trend (descriptively) +; negative trend (descriptively) −; no difference (descriptively) 0; conditions: for severity of testes degradation compared to Group 2: Day 14
Source text: (§1) FIG. 13 Testes. (A): Percentage of severity of testes degeneration according to four categories (minimal, mild, moderate and marked) in group 2 (VL (POx1); 2), group 3 (ML (IPx2); 3), group 4 (ML (POx2); 4) and group 5 (ML (POx1); 5). (B): Percentage of severity of testes degeneration according to four categories (minimal, mild, moderate and marked) in group 2 (VL (POx1);2), 6 (GL (SCx1); 6) and 7 (M/GL (PO/SCx1); 7). (C): Percentage of severity of testes degeneration according to four categories (minimal, mild, moderate and marked) in group 8 (VH (POx1); 8 and 9 (MH (POx1); 9).
as §1, with “14 Bone marrow cellularity.” for “13 Testes.”, “bone marrow cellularity decrease” for “severity of testes degeneration”

[5] = system: C57BL/6 mice; assay: Body weight after whole-body irradiation (response profile analysis); design: key to Supporting variable: Body weight (trend): positive trend (descriptively) +; negative trend (descriptively) −; no difference (descriptively) 0; conditions: for Body weight: % Difference from Baseline (g) (difference to vehicle group 2 at Day 0) / Body weight: % Difference from Vehicle: 5.8 Gy
Protocol: Body weights were assessed twice during acclimation (including Day −3), once prior to irradiation (Day 0), and every 3 days thereafter. Terminal body weights were also collected, with the exception of Animal 4012.
The longitudinal data were analyzed taking into account the mean weight over time in each group and the covariance among the repeated measures by response profile analysis (Fitzmaurice et al., Wiley 2004, p 103-140.). The analysis was specified as a regression model with unstructured covariance to account for the correlation among repeated body weights of the same mouse and indicator variables for treatment groups and time, where the vehicle treatment was used as the reference group and Day 0 was taken as a reference for time.
The response profile analyses provide the following regression coefficients estimated by the restricted maximum likelihood (REML) method: intercept—mean body weight in the reference groups VL (POx1);2 and VH (POx1);8 at Day 0 treatment—difference between the mean body weight in the treatment groups and the vehicle groups at Day 0 time—body weight change from baseline in the reference groups treatment×time—treatment effect at each day estimated by comparison of change from baseline in the treatment groups and control groups For all regression coefficients, p-values and 95%-confidence intervals are provided. This method provides interpretable estimates, is valid if treatment groups differ at baseline, allows for arbitrary patterns in the mean body weight over time (no specific time trend e. g. linear curve assumed) and arbitrary patterns in the covariance. The analysis has certain robustness, as potential risks due to model misspecification are minimal.

[6] = Day 30, Group 9 MH (POx1): 50 mg/kg per os SID Day 1, 2, 3, therapeutic, 6.0 Gy
[7] = Group 3 ML (IPx2): 25 mg/kg IP, Day −3 to 0 (6x), prophylactic, 5.8 Gy
[8] = Group 5 ML (POx1): 50 mg/kg per os SID Day −2, −1, 0, prophylactic, 5.8 Gy
[9] = Group 9 MH (POx1): 50 mg/kg per os SID Day 1, 2, 3, therapeutic, 6.0 Gy
[10] = Group 4 ML (POx2): 25 mg/kg per os, Day −3 to 0 (6x), prophylactic, 5.8 Gy

SMILES: O=C(O)CCCC(=O)NCCc1c[nH]cn1 [Myelo001, 5-{[2-(1H-imidazol-4-yl)ethyl]amino}-5-oxo-pentanoic acid]
- frequency of normal posture score in comparison with control group ([1]; Day 15, Group 3 ML (IPx2): 25 mg/kg IP, Day −3 to 0 (6x), prophylactic, 5.8 Gy): did not result in such changes
- ARS posture score, most frequent grade (mode) ([1]; Day 15, Group 4 ML (POx2): 25 mg/kg per os, Day −3 to 0 (6x), prophylactic, 5.8 Gy): normal
- ARS posture score, most frequent grade (mode) ([1]; Day 15, Group 5 ML (POx1): 50 mg/kg per os SID Day −2, −1, 0, prophylactic, 5.8 Gy): normal
- ARS coat grade ([1]; Day 21, Group 9 MH (POx1): 50 mg/kg per os SID Day 1, 2, 3, therapeutic, 6.0 Gy, control Group 8 mild (20%) and moderate (27%)): mostly normal
- frequency of normal posture score in comparison to control group 8 [1, 6]: trend for the increased frequency of normal posture score
- Supporting variable: ARS scores (trend) [1, 7]: −
- Supporting variable: ARS scores (trend) [1, 8]: +
- Supporting variable: ARS scores (trend) [1, 9]: +
- testes degeneration, proportion by severity category ([2]; Day 14, n.s. (p=0.264), Group 9 MH (POx1): 50 mg/kg per os SID Day 1, 2, 3, therapeutic, 6.0 Gy): higher proportion of testes in minimal category
- decreased cellularity of the bone marrow of both sternum and femur compared to vehicle-treated control Group 8 ([2]; Day 14 and 30 necropsies, Group 9 MH (POx1): 50 mg/kg per os SID Day 1, 2, 3, therapeutic, 6.0 Gy): lower severity of decreased cellularity
- bone marrow cellularity decrease, category ([2]; Day 30, Group 3 ML (IPx2): 25 mg/kg IP, Day −3 to 0 (6x), prophylactic, 5.8 Gy): minimal category
- Supporting variable: Bone marrow celluarity (trend) [2, 7]: +
- Supporting variable: Testes degradation (trend) [2, 7]: +
- decrease of bone marrow cellularity [2, 10]: did not show any significant changes
- Supporting variable: Bone marrow celluarity (trend) [2, 8]: −
- decrease of bone marrow cellularity [2, 8]: did not show any significant changes
- Supporting variable: Bone marrow celluarity (trend) [2, 9]: +
- organ weights data ([2]; all test article groups): no test article-related changes
- hemoglobin, red blood cells, hematocrit compared to group 8 ([3]; Day 14 and Day 30, Group 9 MH (POx1): 50 mg/kg per os SID Day 1, 2, 3, therapeutic, 6.0 Gy): in favor of group 9
- Supporting variable: Hematology (trend) [3, 10]: 0
- severity of testes degradation compared to Group 2 [4, 7]: reduced
- severity of testes degradation compared to Group 2 [4, 10]: reduced
- severity of testes degradation compared to Group 2 [4, 8]: reduced
- Supporting variable: Testes degradation (trend) [4, 10]: +
- Supporting variable: Testes degradation (trend) [4, 8]: +
- Supporting variable: Testes degradation (trend) [4, 9]: +
- Body weight: % Difference from Baseline (g) (difference to vehicle group 2 at Day 0) ([5]; Day 0, Group 3 ML (IPx2): 25 mg/kg IP, Day −3 to 0 (6x), prophylactic): -0.8 g
- Body weight: % Difference from Baseline (g) (difference to vehicle group 2 at Day 0) ([5]; Day 0, Group 4 ML (POx2): 25 mg/kg per os, Day −3 to 0 (6x), prophylactic): -0.3 g
- Body weight: % Difference from Baseline (g) (difference to vehicle group 2 at Day 0) ([5]; Day 0, Group 5 ML (POx1): 50 mg/kg per os SID Day −2, −1, 0, prophylactic): -0.3 g
- Body weight: Estimate (g), change relative to vehicle Group 8 ([5]; Day 0, Group 9 MH (POx1): 50 mg/kg per os SID Day 1, 2, 3, therapeutic, 6.0 Gy): 0.0 g
- Body weight: % Difference from Vehicle ([5]; Day 3, Group 3 ML (IPx2): 25 mg/kg IP, Day −3 to 0 (6x), prophylactic): 0.6 g
- Body weight: % Difference from Vehicle ([5]; Day 3, Group 4 ML (POx2): 25 mg/kg per os, Day −3 to 0 (6x), prophylactic): 0.7 g
- Body weight: % Difference from Vehicle ([5]; Day 3, Group 5 ML (POx1): 50 mg/kg per os SID Day −2, −1, 0, prophylactic): 0.4 g
- Body weight: Estimate (g), change relative to vehicle Group 8 ([5]; Day 3, Group 9 MH (POx1): 50 mg/kg per os SID Day 1, 2, 3, therapeutic, 6.0 Gy): 0.2 g
- compensation of weight loss relative to vehicle Group 8 (amounts up to) ([5]; Day 3 to 30, Group 9 MH (POx1): 50 mg/kg per os SID Day 1, 2, 3, therapeutic, 6.0 Gy): up to 3.1 g
- Body weight: % Difference from Vehicle ([5]; Day 9, Group 3 ML (IPx2): 25 mg/kg IP, Day −3 to 0 (6x), prophylactic): 0.5 g
- Body weight: % Difference from Vehicle ([5]; Day 9, Group 4 ML (POx2): 25 mg/kg per os, Day −3 to 0 (6x), prophylactic): 0.6 g
- Body weight: % Difference from Vehicle ([5]; Day 9, Group 5 ML (POx1): 50 mg/kg per os SID Day −2, −1, 0, prophylactic): 0.4 g
- Body weight: Estimate (g), change relative to vehicle Group 8 ([5]; Day 9, Group 9 MH (POx1): 50 mg/kg per os SID Day 1, 2, 3, therapeutic, 6.0 Gy): 0.4 g
- Body weight: % Difference from Vehicle ([5]; Day 15, Group 3 ML (IPx2): 25 mg/kg IP, Day −3 to 0 (6x), prophylactic): 0.1 g
- Body weight: % Difference from Vehicle ([5]; Day 15, Group 4 ML (POx2): 25 mg/kg per os, Day −3 to 0 (6x), prophylactic): -0.8 g
- Body weight: % Difference from Vehicle ([5]; Day 15, Group 5 ML (POx1): 50 mg/kg per os SID Day −2, −1, 0, prophylactic): -0.4 g
- Body weight: Estimate (g), change relative to vehicle Group 8 ([5]; Day 15, Group 9 MH (POx1): 50 mg/kg per os SID Day 1, 2, 3, therapeutic, 6.0 Gy): 1.4 g
- Body weight: % Difference from Vehicle ([5]; Day 21, Group 3 ML (IPx2): 25 mg/kg IP, Day −3 to 0 (6x), prophylactic): 1.0 g
- Body weight: % Difference from Vehicle ([5]; Day 21, Group 4 ML (POx2): 25 mg/kg per os, Day −3 to 0 (6x), prophylactic): -0.7 g
- Body weight: % Difference from Vehicle ([5]; Day 21, Group 5 ML (POx1): 50 mg/kg per os SID Day −2, −1, 0, prophylactic): -0.1 g
- Body weight: Estimate (g), change relative to vehicle Group 8 ([5]; Day 21, Group 9 MH (POx1): 50 mg/kg per os SID Day 1, 2, 3, therapeutic, 6.0 Gy): 3.1 g
- Body weight: % Difference from Vehicle ([5]; Day 30, Group 3 ML (IPx2): 25 mg/kg IP, Day −3 to 0 (6x), prophylactic): 0.1 g
- Body weight: % Difference from Vehicle ([5]; Day 30, Group 4 ML (POx2): 25 mg/kg per os, Day −3 to 0 (6x), prophylactic): -1.1 g
- Body weight: % Difference from Vehicle ([5]; Day 30, Group 5 ML (POx1): 50 mg/kg per os SID Day −2, −1, 0, prophylactic): 0.1 g
- Body weight: Estimate (g), change relative to vehicle Group 8 [5, 6]: 2.6 g
- Supporting variable: Body weight (trend) [5, 9]: +
